Data as given in ChEMBL document CHEMBL6103592, “Discovery of novel thiazole-pleuromutilin derivatives with potent antibacterial activity” (Eur J Med Chem, 2025).
Converted amounts (≈) assume the structure as drawn. The source made the active and inactive calls. No cut-off for these calls is given here.

Key:
[1] = Acute toxicity in rat assessed as relative uterus weight at 2000 mg/kg, po administered for 7 days followed by readministration after 7 days and measured at 14 days (reference value: 0.27 +/- 0.09%); type: organism-based; settings: in vivo, 336 h, time 14 day
Streptococcus agalactiae = experiment: Antibacterial activity against Streptococcus agalactiae assessed as inhibition of visible bacterial growth incubated for 24 hrs by CLSI based broth microdilution method; type: functional
[2] = Acute toxicity in rat assessed as relative liver weight at 2000 mg/kg, po measured for 7 days (reference value: 4.36 +/- 0.23 %); type: organism-based; settings: in vivo, 168 h, time 7 day
Mycoplasma = experiment: Antibacterial activity against Mycoplasma F3 assessed as inhibition of visible bacterial growth incubated for 24 hrs by CLSI based broth microdilution method; type: functional
[3] = Acute toxicity in rat assessed as relative kidney weight at 2000 mg/kg, po measured for 7 days (reference value: 0.83 +/- 0.08%); type: organism-based; settings: in vivo, 168 h, time 7 day
[4] = Acute toxicity in rat assessed as decrease in locomotor activity at 2000 mg/kg, po measured for 14 days; type: organism-based; settings: in vivo, 336 h, time 14 day
[5] = Acute toxicity in rat assessed as animal death at 2000 mg/kg, po measured for 14 days; type: organism-based; settings: in vivo, 336 h, time 14 day
[6] = Acute toxicity in rat assessed as degeneration of glandular epithelial cells at 2000 mg/kg, po measured for 14 days by H and E staining based analysis; type: organism-based; settings: in vivo, 336 h, time 14 day
Staphylococcus aureus [7] = experiment: Bactericidal activity against methicillin-resistant Staphylococcus aureus ATCC 43300 at 1 times MIC incubated upto 24 hrs by time-kill assay; type: functional, organism-based
[8] = Acute toxicity in rat assessed as relative liver weight at 2000 mg/kg, po administered for 7 days followed by readministration after 7 days and measured at 14 days (reference value: 4.36 +/- 0.23 %); type: organism-based; settings: in vivo, 336 h, time 14 day
Staphylococcus aureus [9] = experiment: Antibacterial activity against methicillin-resistant Staphylococcus aureus ATCC 43300 assessed as post antibiotic effect at 4 times MIC measured after 1 hr; type: functional
[10] = Acute toxicity in rat assessed as pathological changes in kidney at 2000 mg/kg, po measured for 14 days; type: organism-based; settings: in vivo, 336 h, time 14 day
[11] = Acute toxicity in rat assessed as necrosis of glandular epithelial cells at 2000 mg/kg, po measured for 14 days by H and E staining based analysis; type: organism-based; settings: in vivo, 336 h, time 14 day
[12] = Acute toxicity in rat assessed as pathological changes in heart at 2000 mg/kg, po measured for 14 days; type: organism-based; settings: in vivo, 336 h, time 14 day
[13] = Acute toxicity in rat assessed as relative lung weight at 2000 mg/kg, po administered for 7 days followed by readministration after 7 days and measured at 14 days (reference value: 0.58 +/- 0.03 %); type: organism-based; settings: in vivo, 336 h, time 14 day
HepG2 = experiment: Cytotoxicity against human HepG2 cells assessed as cell viability at 200 micromol/L incubated for 24 hrs by CCK-8 assay relative to control; type: functional; settings: HepG2, 24 h, dose 200 µmol/L, read-out: Activity
[14] = Acute toxicity in rat assessed as relative lung weight at 2000 mg/kg, po measured for 7 days (reference value: 0.58 +/- 0.03%); type: organism-based; settings: in vivo, 168 h, time 7 day
[15] = Acute toxicity in rat assessed as degeneration of endometrial epithelial cells at 2000 mg/kg, po measured for 14 days by H and E staining based analysis; type: organism-based; settings: in vivo, 336 h, time 14 day
[16] = Cytotoxicity against human HEK293T cells assessed as cell viability incubated for 24 hrs by CCK-8 assay; type: toxicity, cell-based, HEK-293T
[17] = Acute toxicity in rat assessed as pathological changes in liver at 2000 mg/kg, po measured for 14 days; type: organism-based; settings: in vivo, 336 h, time 14 day
Staphylococcus aureus [18] = experiment: Antibacterial efficacy against methicillin-resistant Staphylococcus aureus ATCC 43300 infected in cyclophosphamide-induced neutropenic systemic infection Kunming mouse model assessed as reduction in bacterial load in lung at 20 mg/kg, iv pretreated with cyclophosphamide for 1 hr followed by compound addition and measured after 5 days; type: functional; settings: time 5 day
Staphylococcus aureus [19] = experiment: Drug resistance, ratio of MIC for methicillin-resistant Staphylococcus aureus ATCC 43300 after 21 passages to MIC for methicillin-resistant Staphylococcus aureus ATCC 43300 during first exposure; type: functional
[20] = Acute toxicity in rat assessed as absolute heart weight at 2000 mg/kg, po administered for 7 days followed by readministration after 7 days and measured at 14 days (reference value: 0.77 +/- 0.12 g); type: organism-based; settings: in vivo, 336 h, time 14 day
Staphylococcus aureus [21] = experiment: Bactericidal activity against methicillin-resistant Staphylococcus aureus ATCC 43300 assessed as log reduction in bacterial count count at 6 times MIC incubated at 24 hrs by time-kill assay; type: functional
Staphylococcus aureus [22] = experiment: Antibacterial efficacy against methicillin-resistant Staphylococcus aureus ATCC 43300 infected in cyclophosphamide-induced neutropenic systemic infection Kunming mouse model assessed as reduction in bacterial load in kidney at 20 mg/kg, iv pretreated with cyclophosphamide for 1 hr followed by compound addition and measured after 5 days; type: functional, organism-based; settings: time 5.0 day
Staphylococcus aureus [23] = experiment: Bactericidal activity against methicillin-resistant Staphylococcus aureus ATCC 43300 at 1 to 6 times MIC incubated upto 24 hrs by time-kill assay; type: functional, organism-based
[24] = Acute toxicity in rat assessed as absolute uterus weight at 2000 mg/kg, po administered for 7 days followed by readministration after 7 days and measured at 14 days (reference value: 0.52 +/- 0.18 g); type: organism-based; settings: in vivo, 336 h, time 14 day
[25] = Acute toxicity in rat assessed as absolute lung weight at 2000 mg/kg, po measured for 7 days (reference value: 1.12 +/- 0.07g); type: organism-based; settings: in vivo, 168 h, time 7 day
[26] = Acute toxicity in rat assessed as absolute liver weight at 2000 mg/kg, po measured for 7 days (reference value: 8.43 +/- 0.43 g); type: organism-based; settings: in vivo, 168 h, time 7 day
[27] = Acute toxicity in rat assessed as tremors at 2000 mg/kg, po measured for 14 days; type: organism-based; settings: in vivo, 336 h, time 14 day

## C=C[C@]1(C)C[C@@H](OC(=O)CSc2nc(OC(=O)c3ccc(C(C)(C)C)cc3)cs2)[C@]2(C)[C@H](C)CC[C@]3(CCC(=O)[C@H]32)[C@@H](C)[C@@H]1O
[1]
  Activity: 0.23%
Streptococcus agalactiae
  MIC: 0.063 µg/mL (≈ 0.0963 µM)
[2]
  Activity: 4.34%
Mycoplasma
  MIC: 0.125 µg/mL (≈ 0.191 µM)
[3]
  Activity: 0.8%
[4]
  Activity: Non-toxic
[5]
  Activity: Non-toxic
[6]
  Activity: Non-toxic
Staphylococcus aureus [7]
  Activity: Active
[8]
  Activity: 3.97%
Staphylococcus aureus [9]
  PAE: 1.85 h
[10]
  Activity: Non-toxic
[11]
  Activity: Non-toxic
[12]
  Activity: Non-toxic
[13]
  Activity: 0.59%
HepG2
  viability at 200 µM: 94.3%
[14]
  Activity: 0.58%
[15]
  Activity: Non-toxic
[16]
  IC50 at 24 h: > 200 µM
[17]
  Activity: Non-toxic
Staphylococcus aureus [18]
  Activity: 0.9 log10CFU
Staphylococcus aureus [19]
  Ratio: 16
[20]
  Activity: 0.78 g
Staphylococcus aureus [21]
  log(activity): 3.08
Staphylococcus aureus [22]
  Activity: inactive
Staphylococcus aureus [23]
  Activity: Dose-dependent-effect
[24]
  Activity: 0.5 g
[25]
  Activity: 1.13 g
[26]
  Activity: 8.5 g
[27]
  Activity: Non-toxic
